# Source: US12098139B2, “Chemokine receptor modulators and uses thereof” (RAPT Therapeutics, Inc., priority 2018, dated 2024)
# Molecular target: T1, hCCR4 (Chem5-hCCR4 cells) (Homo sapiens, UniProt P51679)
# T1 sequence (P51679 1-360): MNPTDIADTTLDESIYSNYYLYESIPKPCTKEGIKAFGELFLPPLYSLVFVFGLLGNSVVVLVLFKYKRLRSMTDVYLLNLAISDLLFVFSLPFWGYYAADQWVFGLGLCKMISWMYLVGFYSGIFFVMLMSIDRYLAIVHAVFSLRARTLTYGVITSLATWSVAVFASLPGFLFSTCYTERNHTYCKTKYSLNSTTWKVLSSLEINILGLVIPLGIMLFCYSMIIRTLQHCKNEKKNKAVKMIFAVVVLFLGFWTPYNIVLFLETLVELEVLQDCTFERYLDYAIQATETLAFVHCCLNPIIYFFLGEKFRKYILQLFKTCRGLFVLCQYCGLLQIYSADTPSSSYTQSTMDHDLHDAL
# Assay: Calcium flux assay (CCL22-stimulated, FLIPR Calcium 6 dye)
# Type: cell-based
# Conditions: Table 3, CCL22 1.5 nM, read-out: Potency (IC50)
# Method: Calcium Flux Assay. Compounds were evaluated in a calcium flux assay substantially performed as follows. Chem5-hCCR4 cells (EMD Millipore, Hayward, CA; HTS009C) were cultured under standard conditions and frozen in aliquots of 10×10^6 cells/mL. The day prior to compound testing, a vial was rapidly thawed and pipetted into 20 mL media (DMEM+10% FBS+1% Pen-Strep+1% L-glutamine). Cells were harvested by centrifugation and re-suspended in fresh culture medium. 25 μL of cell suspension was seeded into 384-well plates (Corning, Tewksbury, MA; CellBind with black wall/clear bottom). The plates were centrifuged at 300 g for 10 seconds and incubated overnight at 37° C. and 5% CO2. The day of compound testing, media was removed from the plates and 25 μL serum free media was added to each well. Plates were returned to the incubator for 2 h. 25 μL assay buffer (Hank's balanced salt solution+20 mM HEPES pH 7.4) containing FLIPR Calcium 6 dye (Molecular Devices, Sunnyvale, CA; #R8191) and probenecid (2.5 mM) was added to each well and incubated at 37° C. and 5% CO2 for 2 h. Compounds in DMSO were added to the plates using an HP D300e digital dispenser, and all wells were normalized to contain 0.25 μL (0.5%) DMSO. Plates were incubated for 1 hour at 37° C. and 5% CO2. CCL22 (Peprotech; Rockyhill, NJ) was diluted in assay buffer containing 0.1% BSA to 7.5 nM (corresponding to 5×EC80 of 1.5 nM).
# Assay plates and working solution of CCL22 were transferred to the FlexStation plate reader (Molecular Devices) at 37° C. for 5 min of equilibration. Fluorescence recordings at 485 excitation/525 emission were performed at 2.5 second intervals. At t=16 seconds, 12.5 μL of CCL22 solution was added to each well and reads continued for 30 seconds at 2.5 second intervals. The minimum fluorescence (Fmin) was calculated by averaging the reads prior to ligand addition and the change in fluorescence (ΔF) was calculated by subtracting the Fmin from the average of the reads following ligand addition. The response ΔF/Fmin was plotted as a function of the compound concentration and the IC50 values were determined by non-linear regression analysis using a 4-parameter fit in either PRISM software (GraphPad; La Jolla, CA) or Dotmatics Browser.
row,IC50 [nM],Compound
1,100 to 500,"C[C@@H](Nc1nc(N2CC([C@H]3CCCN(CCO)C3)C2)ncc1F)c1ccc(Cl)cc1Cl [Example 48, 2-((R)-3-(1-(4-(((R)-1-(2,4-dichlorophenyl)ethyl)amino)-5-fluoropyrimidin-2-yl)azetidin-3-yl)piperidin-1-yl)ethan-1-ol]"
2,< 100,"C[C@@H](Nc1nc(N2CC([C@H]3CCCN([C@H]4C[C@@H](C(=O)O)C4)C3)C2)nc2ccsc12)c1ccc(Cl)cc1Cl [Example 31, (1S,3s)-3-((R)-3-(1-(4-(((R)-1-(2,4-dichlorophenyl)ethyl)amino)thieno[3,2-d]pyrimidin-2-yl)azetidin-3-yl)piperidin-1-yl)cyclobutane-1-carboxylic acid]"
3,100 to 500,"C[C@@H](Nc1nc(N2CC([C@H]3CCCN([C@H]4C[C@@H](C(=O)O)C4)C3)C2)cnc1C#N)c1ccc(Cl)cc1Cl [Example 5, (1S,3s)-3-((R)-3-(1-(5-cyano-6-(((R)-1-(2,4-dichlorophenyl)ethyl)amino)pyrazin-2-yl)azetidin-3-yl)piperidin-1-yl)cyclobutane-1-carboxylic acid]"
4,< 100,"Cc1nc(N2CC([C@H]3CCCN([C@H]4C[C@](C)(C(=O)O)C4)C3)C2)nc(N[C@H](C)c2ccc(Cl)cc2Cl)c1C [Example 22, (1R,3r)-3-((R)-3-(1-(4-(((R)-1-(2,4-dichlorophenyl)ethyl)amino)-5,6-dimethylpyrimidin-2-yl)azetidin-3-yl)piperidin-1-yl)-1-methylcyclobutane-1-carboxylic acid]"
5,< 100,"C[C@@H](Nc1nc(N2CC([C@H]3CCCN([C@H]4C[C@](C)(C(=O)O)C4)C3)C2)ncc1C(C)(C)O)c1ccc(Cl)cc1Cl [Example 35, (1R,3r)-3-((R)-3-(1-(4-(((R)-1-(2,4-dichlorophenyl)ethyl)amino)-5-(2-hydroxypropan-2-yl)pyrimidin-2-yl)azetidin-3-yl)piperidin-1-yl)-1-methylcyclobutane-1-carboxylic acid]"
6,< 100,"C[C@@H](Nc1nc(N2CC([C@H]3CCCN([C@H]4C[C@@H](C(=O)O)C4)C3)C2)nc2ccccc12)c1ccc(Cl)cc1Cl [Example 25, (1S,3s)-3-((R)-3-(1-(4-(((R)-1-(2,4-dichlorophenyl)ethyl)amino)quinazolin-2-yl)azetidin-3-yl)piperidin-1-yl)cyclobutane-1-carboxylic acid]"
7,100 to 500,"C[C@@H](Nc1nc(N2CC([C@H]3CCCN(CCO)C3)C2)ncc1Cl)c1ccc(F)cc1Cl [Example 44, 2-((R)-3-(1-(5-chloro-4-(((R)-1-(2-chloro-4-fluorophenyl)ethyl)amino)pyrimidin-2-yl)azetidin-3-yl)piperidin-1-yl)ethan-1-ol]"
8,> 500,"C[C@@H](Nc1cnc(C#N)c(N2CC([C@H]3CCCN([C@H]4C[C@@H](C(=O)O)C4)C3)C2)n1)c1ccc(Cl)cc1Cl [Example 4, (1S,3s)-3-((R)-3-(1-(3-cyano-6-(((R)-1-(2,4-dichlorophenyl)ethyl)amino)pyrazin-2-yl)azetidin-3-yl)piperidin-1-yl)cyclobutane-1-carboxylic acid]"
9,< 100,"C[C@@H](Nc1nc(N2CC([C@H]3CCCN(CCO)C3)C2)ncc1Br)c1ccc(F)cc1Cl [Example 43, 2-((R)-3-(1-(5-bromo-4-(((R)-1-(2-chloro-4-fluorophenyl)ethyl)amino)pyrimidin-2-yl)azetidin-3-yl)piperidin-1-yl)ethan-1-ol]"
10,> 500,"C[C@@H](Nc1nc(N2CC([C@H]3CCCN([C@H]4C[C@@H](C(=O)O)C4)C3)C2)ncc1F)c1ccc(Cl)cc1Cl [Example 46, (1S,3s)-3-((R)-3-(1-(4-(((R)-1-(2,4-dichlorophenyl)ethyl)amino)-5-fluoropyrimidin-2-yl)azetidin-3-yl)piperidin-1-yl)cyclobutane-1-carboxylic acid]"
11,< 100,"C[C@@H](Nc1nc(N2CC([C@H]3CCCN(CCO)C3)C2)cnc1C#N)c1ccc(Cl)cc1Cl [Example 1, 3-(((R)-1-(2,4-dichlorophenyl)ethyl)amino)-5-(3-((R)-1-(2-hydroxyethyl)piperidin-3-yl)azetidin-1-yl)pyrazine-2-carbonitrile]"

# Same assay, conditions: Table 5, CCL22 1.5 nM, read-out: Potency (IC50)
row,IC50 [nM],Compound
1,< 100,"Cc1nc(N2CC([C@H]3CCCN(C4CC(C)(C(=O)O)C4)C3)C2)nc(N[C@H](C)c2ccc(Cl)cc2Cl)c1F (single isomer, unassigned) [Example 91, trifluoroacetic acid]"
2,< 100,"Cc1cc(N[C@H](C)c2ccc(Cl)cc2Cl)nc(N2CC([C@H]3CCCN(C4CC(C)(C(=O)O)C4)C3)C2)n1 (single isomer, unassigned) [Example 90]"
3,100 to 500,"C[C@@H](Nc1nc(N2CC([C@H]3CCCN(CCO)C3)C2)ncc1C(=O)N1CCCC1)c1ccc(Cl)cc1Cl [Example 85, [4-[[(1R)-1-(2,4-dichlorophenyl)ethyl]amino]-2-[3-[(3R)-1-(2-hydroxyethyl)-3-piperidyl]azetidin-1-yl]pyrimidin-5-yl]-pyrrolidin-1-yl-methanone; 2,2,2-trifluoroacetic acid]"
4,< 100,"Cc1cc2c(N[C@H](C)c3ccc(Cl)cc3Cl)nc(N3CC([C@H]4CCCN(C5CC(C)(C(=O)O)C5)C4)C3)nc2s1 (single isomer, unassigned) [Example 67, trifluoroacetic acid]"
5,100 to 500,"C[C@@H](Nc1nc(N2CC([C@H]3CCCN([C@H]4C[C@@H](C(=O)O)C4)C3)C2)ncc1C#N)c1ccc(Cl)cc1Cl [Example 93, 3-[(3R)-3-[1-[5-cyano-4-[[(1R)-1-(2,4-dichlorophenyl)ethyl]amino]pyrimidin-2-yl]azetidin-3-yl]-1-piperidyl]cyclobutanecarboxylic acid]"
6,< 100,"C[C@@H](Nc1cc(C2CC2)nc(N2CC([C@H]3CCCN(C4CC(C)(C(=O)O)C4)C3)C2)n1)c1ccc(Cl)cc1Cl (single isomer, unassigned) [Example 80]"
7,> 500,"COc1cc(N[C@H](C)c2ccc(Cl)cc2Cl)nc(N2CC([C@H]3CCCN(C4CC(C)(C(=O)O)C4)C3)C2)n1 (single isomer, unassigned) [Example 82]"
8,< 100,"C[C@@H](Nc1nc(N2CC([C@H]3CCCN(C4CC(C)(C(=O)O)C4)C3)C2)nc2scnc12)c1ccc(Cl)cc1Cl (single isomer, unassigned) [Example 71, trifluoroacetic acid]"
9,< 100,"C[C@@H](Nc1nc(N2CC([C@H]3CCCN(C4CC(C)(C(=O)O)C4)C3)C2)nc(CO)c1Cl)c1ccc(Cl)cc1Cl (single isomer, unassigned) [Example 86]"
10,< 100,"C[C@@H](Nc1nc(N2CC([C@H]3CCCN([C@H]4C[C@@H](C(=O)O)C4)C3)C2)nc2ccc(F)cc12)c1ccc(Cl)cc1Cl [Example 66, 3-[(1S,3R)-3-[1-[4-[[(1R)-1-(2,4-dichlorophenyl)ethyl]amino]-6-fluoro-quinazolin-2-yl]azetidin-3-yl]-1-piperidyl]cyclobutanecarboxylic acid; 2,2,2-trifluoroacetic acid]"
11,< 100,"CC(=O)c1cnc(N2CC([C@H]3CCCN(C4CC(C)(C(=O)O)C4)C3)C2)nc1N[C@H](C)c1ccc(Cl)cc1Cl (single isomer, unassigned) [Example 78]"
12,< 100,"C[C@@H](Nc1nc(N2CC([C@H]3CCCN(C4CC(C)(C(=O)O)C4)C3)C2)nc2cc[nH]c12)c1ccc(Cl)cc1Cl (single isomer, unassigned) [Example 72, trifluoroacetic acid]"
13,< 100,"C[C@@H](Nc1nc(N2CC([C@H]3CCCN([C@H]4C[C@](C)(C(=O)O)C4)C3)C2)ncc1C(O)C1CC1)c1ccc(Cl)cc1Cl (stereo partly drawn) [Example 70, 3-[(3R)-3-[1-[5-[cyclopropyl(hydroxy)methyl]-4-[[(1R)-1-(2,4-dichlorophenyl)ethyl]amino]pyrimidin-2-yl]azetidin-3-yl]-1-piperidyl]-1-methyl-cyclobutanecarboxylic acid; 2,2,2-trifluoroacetic acid]"
